Laboratory results published in ChEMBL document CHEMBL3885881, “DrugMatrix”.

Species on record: Rattus norvegicus
Test: DrugMatrix - Regimen: Daily Repeat
Format: toxicity, organism-based, Sprague-Dawley
Parameters: regimen Daily Repeat, gender Male, age 6-8 weeks
Details: in vivo, iv, vehicle 100 % SALINE; for ABSOLUTE BASOPHIL / ABSOLUTE EOSINOPHIL / ABSOLUTE LYMPHOCYTE / ABSOLUTE MONOCYTE / ABSOLUTE SEGMENTED NEUTROPHIL / BASOPHIL / EOSINOPHIL / ERYTHROCYTE COUNT / HEMATOCRIT / HEMOGLOBIN / LEUKOCYTE COUNT / LYMPHOCYTE / MEAN CORPUSCULAR HEMOGLOBIN / MEAN CORPUSCULAR HEMOGLOBIN CONCENTRATION / MEAN CORPUSCULAR VOLUME / MONOCYTE / NEUTROPHIL / NUCLEATED RED BLOOD CELLS / PLATELET COUNT: tissue Blood; for ALANINE AMINOTRANSFERASE / ALBUMIN / ALKALINE PHOSPHATASE / ASPARTATE AMINOTRANSFERASE / BLOOD UREA NITROGEN / CARBON DIOXIDE / CHLORIDE / CHOLESTEROL / CREATINE PHOSPHOKINASE / CREATININE / GLUCOSE / LACTATE DEHYDROGENASE / LIPASE / PHOSPHORUS / POTASSIUM / SODIUM / TOTAL BILIRUBIN / TOTAL PROTEIN / URIC ACID: tissue Plasma
[1] = 0 mg/kg, 72 h, dose level Control, time 3 day
[2] = 0 mg/kg, 120 h, dose level Control, time 5 day
[3] = 3 mg/kg, 72 h, dose level Low, time 3 day

SMILES: O=c1[nH]c(=O)n([C@H]2C[C@H](O)[C@@H](CO)O2)cc1F [FLOXURIDINE]
- ABSOLUTE BASOPHIL [1]: 0 CELLS/uL
- ABSOLUTE EOSINOPHIL [1]: 0 CELLS/uL
- ABSOLUTE LYMPHOCYTE [1]: 11636.83 CELLS/uL
- ABSOLUTE MONOCYTE [1]: 159 CELLS/uL
- ABSOLUTE SEGMENTED NEUTROPHIL [1]: 1170.83 CELLS/uL
- BASOPHIL [1]: 0%
- EOSINOPHIL [1]: 0%
- ERYTHROCYTE COUNT [1]: 5.46 x10E6/uL
- HEMATOCRIT [1]: 34.05%
- HEMOGLOBIN [1]: 13.58 G/DL
- LEUKOCYTE COUNT [1]: 12.97 x10E3/uL
- LYMPHOCYTE [1]: 89.67%
- MEAN CORPUSCULAR HEMOGLOBIN [1]: 24.87 pg
- MEAN CORPUSCULAR HEMOGLOBIN CONCENTRATION [1]: 39.9 G/DL
- MEAN CORPUSCULAR VOLUME [1]: 62.3 fL
- MONOCYTE [1]: 1.33%
- NEUTROPHIL [1]: 9%
- NUCLEATED RED BLOOD CELLS [1]: 0.17 /100WBC
- PLATELET COUNT [1]: 824 x10E3/uL
- ALANINE AMINOTRANSFERASE [1]: 64.83 u/L
- ALBUMIN [1]: 4.08 G/DL
- ALKALINE PHOSPHATASE [1]: 421 u/L
- ASPARTATE AMINOTRANSFERASE [1]: 116.83 u/L
- BLOOD UREA NITROGEN [1]: 16.83 mg/dL
- CARBON DIOXIDE [1]: 28 mmol/L
- CHLORIDE [1]: 101.33 MEQ/L
- CHOLESTEROL [1]: 74.17 mg/dL
- CREATINE PHOSPHOKINASE [1]: 748.5 u/L
- CREATININE [1]: 0.22 mg/dL
- GLUCOSE [1]: 152.83 mg/dL
- LACTATE DEHYDROGENASE [1]: 578.5 u/L
- LIPASE [1]: 9.83 u/L
- PHOSPHORUS [1]: 11.63 mg/dL
- POTASSIUM [1]: 5.93 MEQ/L
- SODIUM [1]: 142.1 MEQ/L
- TOTAL BILIRUBIN [1]: 0.17 mg/dL
- TOTAL PROTEIN [1]: 5.77 G/DL
- URIC ACID [1]: 1.43 mg/dL
- ABSOLUTE BASOPHIL [2]: 0 CELLS/uL
- ABSOLUTE EOSINOPHIL [2]: 159.17 CELLS/uL
- ABSOLUTE LYMPHOCYTE [2]: 12267.5 CELLS/uL
- ABSOLUTE MONOCYTE [2]: 30 CELLS/uL
- ABSOLUTE SEGMENTED NEUTROPHIL [2]: 1160 CELLS/uL
- BASOPHIL [2]: 0%
- EOSINOPHIL [2]: 1.17%
- ERYTHROCYTE COUNT [2]: 5.52 x10E6/uL
- HEMATOCRIT [2]: 34.3%
- HEMOGLOBIN [2]: 13.73 G/DL
- LEUKOCYTE COUNT [2]: 13.62 x10E3/uL
- LYMPHOCYTE [2]: 90.5%
- MEAN CORPUSCULAR HEMOGLOBIN [2]: 24.92 pg
- MEAN CORPUSCULAR HEMOGLOBIN CONCENTRATION [2]: 40.07 G/DL
- MEAN CORPUSCULAR VOLUME [2]: 62.17 fL
- MONOCYTE [2]: 0.17%
- NEUTROPHIL [2]: 8.17%
- NUCLEATED RED BLOOD CELLS [2]: 0.17 /100WBC
- PLATELET COUNT [2]: 1261.83 x10E3/uL
- ALANINE AMINOTRANSFERASE [2]: 58.67 u/L
- ALBUMIN [2]: 4.15 G/DL
- ALKALINE PHOSPHATASE [2]: 364.67 u/L
- ASPARTATE AMINOTRANSFERASE [2]: 105.33 u/L
- BLOOD UREA NITROGEN [2]: 17.67 mg/dL
- CARBON DIOXIDE [2]: 26.5 mmol/L
- CHLORIDE [2]: 101.67 MEQ/L
- CHOLESTEROL [2]: 63 mg/dL
- CREATINE PHOSPHOKINASE [2]: 480.67 u/L
- CREATININE [2]: 0.17 mg/dL
- GLUCOSE [2]: 144.67 mg/dL
- LACTATE DEHYDROGENASE [2]: 540.33 u/L
- LIPASE [2]: 10.33 u/L
- PHOSPHORUS [2]: 11.52 mg/dL
- POTASSIUM [2]: 6.12 MEQ/L
- SODIUM [2]: 142.45 MEQ/L
- TOTAL BILIRUBIN [2]: 0.18 mg/dL
- TOTAL PROTEIN [2]: 5.73 G/DL
- URIC ACID [2]: 1.48 mg/dL
- ABSOLUTE BASOPHIL [3]: 0 CELLS/uL
- ABSOLUTE EOSINOPHIL [3]: 0 CELLS/uL
- ABSOLUTE LYMPHOCYTE [3]: 9392.67 CELLS/uL
- ABSOLUTE MONOCYTE [3]: 101.67 CELLS/uL
- ABSOLUTE SEGMENTED NEUTROPHIL [3]: 505.67 CELLS/uL
- BASOPHIL [3]: 0%
- EOSINOPHIL [3]: 0%
- ERYTHROCYTE COUNT [3]: 5.12 x10E6/uL
- HEMATOCRIT [3]: 32.33%
- HEMOGLOBIN [3]: 13.1 G/DL
- LEUKOCYTE COUNT [3]: 10 x10E3/uL
- LYMPHOCYTE [3]: 94%
- MEAN CORPUSCULAR HEMOGLOBIN [3]: 25.7 pg
- MEAN CORPUSCULAR HEMOGLOBIN CONCENTRATION [3]: 40.53 G/DL
- MEAN CORPUSCULAR VOLUME [3]: 63.17 fL
- MONOCYTE [3]: 1%
- NEUTROPHIL [3]: 5%
- NUCLEATED RED BLOOD CELLS [3]: 0 /100WBC
- PLATELET COUNT [3]: 833.67 x10E3/uL
- ALANINE AMINOTRANSFERASE [3]: 54.67 u/L
- ALBUMIN [3]: 4.4 G/DL
- ALKALINE PHOSPHATASE [3]: 391.67 u/L
- ASPARTATE AMINOTRANSFERASE [3]: 100 u/L
- BLOOD UREA NITROGEN [3]: 17 mg/dL
- CARBON DIOXIDE [3]: 29.67 mmol/L
- CHLORIDE [3]: 101 MEQ/L
- CHOLESTEROL [3]: 79 mg/dL
- CREATINE PHOSPHOKINASE [3]: 755 u/L
- CREATININE [3]: 0.22 mg/dL
- GLUCOSE [3]: 171 mg/dL
- LACTATE DEHYDROGENASE [3]: 240.33 u/L
- LIPASE [3]: 9 u/L
- PHOSPHORUS [3]: 10.77 mg/dL
- POTASSIUM [3]: 6.26 MEQ/L
- SODIUM [3]: 142.13 MEQ/L
- TOTAL BILIRUBIN [3]: 0.2 mg/dL
- TOTAL PROTEIN [3]: 6.17 G/DL
- URIC ACID [3]: 2.23 mg/dL
